# According to patent US20260022142A1, “MACROCYCLIC IMMUNOMODULATORS” (Bristol-Myers Squibb Company, priority 2022, published 2026):
# Bridge positions count the residues as written; N and C are the ends. Square brackets hold non-standard residues; d marks the D form. Peptide text beside a SMILES is read from it. * marks the point of attachment. ξ: configuration not given here. Bip = N[C@@H](Cc1ccc(-c2ccccc2)cc1)C(=O)O; Phe(3-Me) = Cc1cccc(C[C@H](N)C(=O)O)c1; NH(CH2)12COOH = O=C(O)CCCCCCCCCCCCN*; Val(3-F) = CC(C)(F)[C@H](N)C(=O)O; hhGln = NC(=O)CCCC[C@H](N)C(=O)O; Cha = N[C@@H](CC1CCCCC1)C(=O)O; Cit = NC(=O)NCCC[C@H](N)C(=O)O; Ile(3ξ) = CCC(C)[C@H](N)C(=O)O; Thr(3ξ) = CC(O)[C@H](N)C(=O)O; dNle = CCCC[C@@H](N)C(=O)O; Carboxymethyl = O=C(O)C*; Orn = NCCC[C@H](N)C(=O)O; Aun = NCCCCCCCCCCC(=O)O; Dab = NCC[C@H](N)C(=O)O; ξE = NC(CCC(=O)O)C(=O)O; Dap = NC[C@H](N)C(=O)O; AEEA = NCCOCCOCC(=O)O
# Molecular target: T1, PD-1/PD-L1 interaction (PE-labeled human PD-L1-Ig binding to Jurkat cell line over-expressing human PD-1) (Homo sapiens, UniProt Q15116)
# T1 construct: expressed in transfected cells; host or cells: Jurkat
# Experiment: Jurkat-PD-1 Cell Binding High-Content Screening Assay (CBA)
# Type: cell-based
# Conditions: Jurkat cell line over-expressing human PD-1; PE-labeled PD-L1-Ig 20 nM final; read-out: Jurkat hPD1-PDL1 IC50
# Method in brief: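 Binding of fluorescent PD-L1-Ig (phycoerythrin on Ig tag, 20 nM final, 1 h) measured by high-content imaging of fixed, Hoechst-counterstained Jurkat-hPD-1 cells. Compound added 2 h at 37° C beforehand, in DMEM with 10% fetal calf serum.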
# T1 sequence (Q15116 25-288): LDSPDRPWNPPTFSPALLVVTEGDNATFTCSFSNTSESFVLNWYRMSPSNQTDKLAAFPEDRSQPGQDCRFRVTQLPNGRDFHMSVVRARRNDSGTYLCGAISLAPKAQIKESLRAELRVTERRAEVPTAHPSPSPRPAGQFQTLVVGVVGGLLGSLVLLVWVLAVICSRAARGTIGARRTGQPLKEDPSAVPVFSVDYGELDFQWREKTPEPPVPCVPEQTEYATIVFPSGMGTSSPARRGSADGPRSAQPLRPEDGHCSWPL
row,IC50 [nM],Structure (SMILES)
1,10.9,Cc1cccc(C[C@@H]2NC(=O)[C@H](CC(=O)O)NC(=O)[C@H](Cc3ccc(OCC(=O)O)cc3)NC(=O)[C@H](CN)NC(=O)CSC[C@@H](C(=O)N[C@@H](CCN)C(=O)NCCOCCOCC(=O)NCCCCCCCCCCC(=O)O)NC(=O)[C@H](CN)NC(=O)[C@H](C(C)C)NC(=O)[C@H](CC3CCCCC3)NC(=O)[C@H](CCN)NC(=O)[C@@H](CC(C)C)NC(=O)[C@H](CCCN)NC(=O)[C@H](CCC(=O)O)NC(=O)[C@H](Cc3ccc(-c4ccccc4)cc3)NC(=O)[C@H](C(C)C)NC2=O)c1 [Compound 2661] ({CH2CO}-[Dap]Y(Carboxymethyl)D[Phe(3-Me)]V[Bip]E[Orn][dL][Dab][Cha]V[Dap]C[Dab][AEEA][Aun]-OH; thioether N-14)
2,24.3,Cc1cccc(C[C@@H]2NC(=O)[C@H](CC(=O)O)NC(=O)[C@H](Cc3ccc(OCC(=O)O)cc3)NC(=O)[C@H](CN)NC(=O)CSC[C@@H](C(=O)N[C@@H](CCN)C(=O)NCCCCCCCCCCC(=O)O)NC(=O)[C@@H]([C@H](C)O)NC(=O)[C@H](C(C)C)NC(=O)[C@H](CC3CCCCC3)NC(=O)[C@H](CCN)NC(=O)[C@@H](CC(C)C)NC(=O)[C@H](CCCN)NC(=O)[C@H](Cc3ccc(O)cc3)NC(=O)[C@H](Cc3ccc(-c4ccccc4)cc3)NC(=O)[C@H](Cc3ccc(O)cc3)NC2=O)c1 [Compound 2716] ({CH2CO}-[Dap]Y(Carboxymethyl)D[Phe(3-Me)]Y[Bip]Y[Orn][dL][Dab][Cha]V[dT]C[Dab][Aun]-OH; thioether N-14)
3,28.5,Cc1cccc(C[C@@H]2NC(=O)[C@H](CC(=O)O)NC(=O)[C@H](Cc3ccc(OCC(=O)O)cc3)NC(=O)[C@H](Cc3ccc(OCC(=O)O)cc3)NC(=O)CSC[C@@H](C(=O)NCC(=O)N[C@@H](CCCN)C(=O)NCC(=O)NCCCCCCCCCCC(=O)O)NC(=O)[C@H](CO)NC(=O)[C@H](C(C)C)NC(=O)[C@H](CC3CCCCC3)NC(=O)[C@H](CCN)NC(=O)[C@@H](CC(C)C)NC(=O)[C@H](CCCN)NC(=O)[C@H](C(C)C)NC(=O)[C@H](Cc3ccc(-c4ccccc4)cc3)NC(=O)[C@H](CC(C)C)NC2=O)c1 [Compound 1067] ({CH2CO}-Y(Carboxymethyl)Y(Carboxymethyl)D[Phe(3-Me)]L[Bip]V[Orn][dL][Dab][Cha]VSCG[Orn]G[Aun]-OH; thioether N-14)
4,9.5,Cc1cccc(C[C@@H]2NC(=O)[C@H](CC(=O)O)NC(=O)[C@H](Cc3ccc(OCC(=O)O)cc3)NC(=O)[C@H](CN)NC(=O)CSC[C@@H](C(=O)NCCOCCOCC(=O)N[C@@H](CCN)C(=O)NCCCCCCCCCCC(=O)O)NC(=O)[C@H](CCCN)NC(=O)[C@H](C(C)C)NC(=O)[C@H](CC3CCCCC3)NC(=O)[C@H](CCN)NC(=O)[C@@H](CC(C)C)NC(=O)[C@H](CCCN)NC(=O)[C@H](C(C)C)NC(=O)[C@H](Cc3ccc(-c4ccccc4)cc3)NC(=O)[C@H](C(C)C)NC2=O)c1 [Compound 2543] ({CH2CO}-[Dap]Y(Carboxymethyl)D[Phe(3-Me)]V[Bip]V[Orn][dL][Dab][Cha]V[Orn]C[AEEA][Dab][Aun]-OH; thioether N-14)
5,8.5,Cc1cccc(C[C@@H]2NC(=O)[C@H](CC(=O)O)NC(=O)[C@H](Cc3ccc(OCC(=O)O)cc3)NC(=O)[C@H](CN)NC(=O)CSC[C@@H](C(=O)N[C@@H](C)C(=O)NC(CCC(=O)O)C(=O)NCCOCCOCC(=O)NCCCCCCCCCCC(=O)O)NC(=O)[C@H](CCCN)NC(=O)[C@H](C(C)C)NC(=O)[C@H](CC3CCCCC3)NC(=O)[C@H](CCN)NC(=O)[C@@H](CC(C)C)NC(=O)[C@H](CCCN)NC(=O)[C@H](CCCCC(N)=O)NC(=O)[C@H](Cc3ccc(-c4ccccc4)cc3)NC(=O)[C@H](C(C)C)NC2=O)c1 (stereo partly drawn) [Compound 2615] ({CH2CO}-[Dap]Y(Carboxymethyl)D[Phe(3-Me)]V[Bip][hhGln][Orn][dL][Dab][Cha]V[Orn]CA[ξE][AEEA][Aun]-OH; thioether N-14)
6,50.1,CCC(C)[C@@H]1NC(=O)[C@H](Cc2ccc(-c3ccccc3)cc2)NC(=O)[C@H](C(C)C)NC(=O)[C@H](Cc2cccc(C)c2)NC(=O)[C@H](CC(=O)O)NC(=O)[C@H](Cc2ccc(OCC(=O)O)cc2)NC(=O)[C@H](C(C)O)NC(=O)CSC[C@@H](C(=O)N[C@@H](CCN)C(=O)NCCCCCCCCCCCCC(=O)O)NC(=O)[C@H](CO)NC(=O)[C@H](C(C)C)NC(=O)[C@H](CC2CCCCC2)NC(=O)[C@H](CCN)NC(=O)[C@@H](CC(C)C)NC(=O)[C@H](CCCN)NC1=O (stereo partly drawn) [Compound 3093] ({CH2CO}-[Thr(3ξ)]Y(Carboxymethyl)D[Phe(3-Me)]V[Bip][Ile(3ξ)][Orn][dL][Dab][Cha]VSC[Dab]-{NH(CH2)12COOH}; thioether N-14)
7,22.7,CCCC[C@H]1NC(=O)[C@H](CCCN)NC(=O)[C@H](C(C)C)NC(=O)[C@H](Cc2ccc(-c3ccccc3)cc2)NC(=O)[C@H](C(C)C)NC(=O)[C@H](Cc2c[nH]c3ccccc23)NC(=O)[C@H](CC(=O)O)NC(=O)[C@H](Cc2ccc(OCC(=O)O)cc2)NC(=O)[C@H](CN)NC(=O)CSC[C@@H](C(=O)NCCOCCOCC(=O)N[C@@H](CCN)C(=O)NCCCCCCCCCCC(=O)O)NC(=O)[C@H](CCCCN)NC(=O)[C@H](C(C)C)NC(=O)[C@H](CC2CCCCC2)NC(=O)[C@H](CCN)NC1=O [Compound 2672] ({CH2CO}-[Dap]Y(Carboxymethyl)DWV[Bip]V[Orn][dNle][Dab][Cha]VKC[AEEA][Dab][Aun]-OH; thioether N-14)
8,21.6,Cc1cccc(C[C@@H]2NC(=O)[C@H](CC(=O)O)NC(=O)[C@H](Cc3ccc(OCC(=O)O)cc3)NC(=O)[C@H](CN)NC(=O)CSC[C@@H](C(=O)N[C@@H](CCN)C(=O)NCCOCCOCC(=O)NCCCCCCCCCCC(=O)O)NC(=O)[C@H](CCCN)NC(=O)[C@H](Cc3ccc(O)cc3)NC(=O)[C@H](CC3CCCCC3)NC(=O)[C@H](CCN)NC(=O)[C@@H](CC(C)C)NC(=O)[C@H](CCCN)NC(=O)[C@H](CCCNC(N)=O)NC(=O)[C@H](Cc3ccc(-c4ccccc4)cc3)NC(=O)[C@H](Cc3ccc(O)cc3)NC2=O)c1 [Compound 2572] ({CH2CO}-[Dap]Y(Carboxymethyl)D[Phe(3-Me)]Y[Bip][Cit][Orn][dL][Dab][Cha]Y[Orn]C[Dab][AEEA][Aun]-OH; thioether N-14)
9,17.3,Cc1cccc(C[C@@H]2NC(=O)[C@H](CC(=O)O)NC(=O)[C@H](Cc3ccc(OCC(=O)O)cc3)NC(=O)[C@H](CCCNC(=N)N)NC(=O)CSC[C@@H](C(=O)N[C@@H](CCN)C(=O)NCCCCCCCCCCC(=O)O)NC(=O)[C@H]([C@@H](C)O)NC(=O)[C@H](C(C)C)NC(=O)[C@H](CC3CCCCC3)NC(=O)[C@H](CCN)NC(=O)[C@@H](CC(C)C)NC(=O)[C@H](CCCN)NC(=O)[C@H](CCCNC(N)=O)NC(=O)[C@H](Cc3ccc(-c4ccccc4)cc3)NC(=O)[C@H](C(C)(C)F)NC2=O)c1 [Compound 2124] ({CH2CO}-RY(Carboxymethyl)D[Phe(3-Me)][Val(3-F)][Bip][Cit][Orn][dL][Dab][Cha]VTC[Dab][Aun]-OH; thioether N-14)
